# In patent US20110091570A1, “Compositions and Devices for Antisepsis and Anticoagulation” (priority 2008, published 2011):
# Where “and” joins values, the source holds several entries; their conditions need not be identical. Equal values may be shown once.
# Tests used:
# [1] = system: Proteus mirabilis; assay: Bactericidal activity of NCT without and with heparin (CFU counts); type: cell-based
# [2] = system: Staphylococcus aureus, ATCC 25923; assay: Bactericidal activity of NCT with heparin in human whole blood; type: cell-based; conditions: 37° C.
# Experimental: FIG. 10 presents a plot of bactericidal activity of 1% NCT with 125 IE/mL heparin in human blood against Staphylococcus aureus (ATCC 25923) at […] and 37° C. Mean values±standard error of the mean of three independent experiments. P<0.01 between NCT and control samples.
# Bacteria (Staphylococcus aureus, ATCC 25923 and Escherichia coli, ATCC 11229) grown in tryptic soy broth overnight were washed twice in saline and suspended in human whole blood containing 125 IE/mL heparin. Different volumes of a saline solution of NCT sodium salt were added to the suspension so that the test samples contained 10%, 25%, 50%, and 75% blood. In addition, 100% blood plus 125 IE/mL heparin was tested at which NCT was directly dissolved in blood. The final NCT concentration after mixing blood and NCT solutions was 1% in all samples. Controls contained 100% blood plus 125 IE/mL heparin and 10%, 25%, 50% and 75% blood, respectively, in saline, plus 125 IE/mL heparin without NCT. All of the solutions were incubated at 37° C. and pH 7.36-7.44 (the pH of blood). After 1, 3, 5, 10, 15, 30, 45 and 60 minutes, aliquots of 100 μL were removed and diluted tenfold or 100-fold in 0.6% sodium thiosulfate solution to inactivate the NCT. Aliquots (50 μL) of these dilutions were spread on tryptic soy agar plates. The plates were incubated at 37° C. and colony forming units of bacteria were counted after 24 and 48 hours. […]
# [3] = system: D-Dimer; assay: D-Dimer in citrate blood; type: biochemical, human; conditions: Example 7; for D-Dimer: individual subjects 1-11; for D-Dimer, mean value: mean of 11 subjects
# Experimental: Whole blood was taken from 11 volunteers and enriched with trisodium citrate (0.3 mL of a 0.106 molar solution per 3 mL whole blood) (S-Monovette®, Sarstedt, Nümbrecht, Germany). Commercial coagulation tests (as described in Example 6) were performed with the following samples: […]
# [4] = system: mice; conditions: transtympanal injection of 0.1%, 1%, and 10% NCT, mice [Ref. 19]; cited from earlier work
structure (smiles),measurement,setting,value
"O=S(=O)(O)CCNCl [NCT, N-chlorotaurine]",influence of heparin on the killing of bacteria,"[1]; 0.1% NCT, virtually identical experiments",no statistically significant influence of heparin on the killing of bacteria
same,killing activity of NCT with vs without heparin,"[1]; 1% NCT, 125 IE/mL heparin, pH 7.1, 37° C., 1-10 min",no difference in the killing activity
same,bactericidal activity in blood,[2]; 1% NCT dissolved in 100% blood plus 125 IE/mL heparin,no significant bactericidal activity was detected
same,bactericidal activity in blood,"[2]; 1% NCT in 10%, 25%, 50% and 75% blood plus 125 IE/mL heparin",demonstrated bactericidal activity
same,D-Dimer,[3]; 0.01% NCT,209 µg/L and 195 µg/L and 340 µg/L and 143 µg/L and 50 µg/L and 174 µg/L and 241 µg/L and 155 µg/L and 132 µg/L and 191 µg/L and 149 µg/L
same,"D-Dimer, mean value",[3]; 0.01% NCT,179.9 µg/L
same,D-Dimer,[3]; 0.025% NCT,200 µg/L and 179 µg/L and 316 µg/L and 122 µg/L and 50 µg/L and 153 µg/L and 227 µg/L and 143 µg/L and 126 µg/L and 172 µg/L and 132 µg/L
same,"D-Dimer, mean value",[3]; 0.025% NCT,165.5 µg/L
same,damage of the inner ear,[4],did not cause damage of the inner ear
